Experimental data published in US10792289B2 (Horizon Orphan LLC, priority 2009, dated 2020).
Where two headings read alike, the source gives them in different places.

Tested on: P. aeruginosa isolates
Assay: Phase 2 study: MIC of P. aeruginosa isolates to levofloxacin
Type: cell-based
Settings: Pseudomonas aeruginosa
Procedure: Efficacy was evaluated by microbiologic assessment of sputum samples, time to need for anti-pseudomonal antimicrobials, the Cystic Fibrosis Questionaire-Revised (CFQ-R), and pulmonary function tests. […] Pair-wise comparisons between all the treatment arms were conducted as secondary analyses.

SMILES: C[C@H]1COc2c(N3CCN(C)CC3)c(F)cc3c(=O)c(C(=O)O)cn1c23 [Levofloxacin, levofloxacin]
- MIC50 (336 h, MITT, combined 240 mg QD and BID, Day 14, read-out: MIC50 (all organisms)): 4 µg/mL
- MIC90 (336 h, MITT, combined 240 mg QD and BID, Day 14, read-out: MIC90 (all organisms)): 16 µg/mL
- MIC50 (336 h, Table 14, EE, 120 mg QD, Day 14, read-out: MIC50 (all organisms)): 8 µg/mL
- MIC90 (336 h, Table 14, EE, 120 mg QD, Day 14, read-out: MIC90 (all organisms)): 32 µg/mL
- MIC50 (336 h, Table 14, EE, 240 mg BID, Day 14, read-out: MIC50 (all organisms)): 4 µg/mL
- MIC90 (336 h, Table 14, EE, 240 mg BID, Day 14, read-out: MIC90 (all organisms)): 32 µg/mL
- MIC50 (336 h, Table 14, EE, 240 mg QD, Day 14, read-out: MIC50 (all organisms)): 8 µg/mL
- MIC90 (336 h, Table 14, EE, 240 mg QD, Day 14, read-out: MIC90 (all organisms)): 16 µg/mL
- MIC (336 h, read-out: Highest MIC to levofloxacin, mean (SD), MITT, 120 mg QD, Day 14): 20.3 µg/mL
- MIC (336 h, read-out: Highest MIC to levofloxacin, mean (SD), MITT, 240 mg BID, Day 14): 14.9 µg/mL
- MIC (336 h, read-out: Highest MIC to levofloxacin, mean (SD), MITT, 240 mg QD, Day 14): 9.28 µg/mL
- MIC (336 h, read-out: Highest MIC to levofloxacin, mean (SD), MITT, combined 240 mg QD and BID, Day 14): 12.1 µg/mL
- MIC (336 h, read-out: MIC to levofloxacin (all organisms), mean (SD), EE, 120 mg QD, Day 14): 13 µg/mL
- MIC (336 h, read-out: MIC to levofloxacin (all organisms), mean (SD), EE, 240 mg BID, Day 14): 8.4 µg/mL
- MIC (336 h, read-out: MIC to levofloxacin (all organisms), mean (SD), EE, 240 mg QD, Day 14): 6.6 µg/mL
- MIC (336 h, read-out: MIC to levofloxacin (all organisms), mean (SD), EE, combined 240 mg QD and BID, Day 14): 7.5 µg/mL
- MIC (336 h, read-out: MIC to levofloxacin (all organisms), mean (SD), MITT, 120 mg QD, Day 14): 12.9 µg/mL
- MIC (336 h, read-out: MIC to levofloxacin (all organisms), mean (SD), MITT, 240 mg BID, Day 14): 8.2 µg/mL
- MIC (336 h, read-out: MIC to levofloxacin (all organisms), mean (SD), MITT, 240 mg QD, Day 14): 6.5 µg/mL
- MIC (336 h, read-out: MIC to levofloxacin (all organisms), mean (SD), MITT, combined 240 mg QD and BID, Day 14): 7.3 µg/mL
- MIC (336 h, read-out: MIC to levofloxacin (all organisms), mean (SD), Table 14, EE, 120 mg QD, Day 14): 21.2 µg/mL
- MIC (336 h, read-out: MIC to levofloxacin (all organisms), mean (SD), Table 14, EE, 240 mg BID, Day 14): 15.2 µg/mL
- MIC (336 h, read-out: MIC to levofloxacin (all organisms), mean (SD), Table 14, EE, 240 mg QD, Day 14): 9.56 µg/mL
- MIC (336 h, read-out: MIC to levofloxacin (all organisms), mean (SD), Table 14, EE, combined 240 mg QD and BID, Day 14): 12.3 µg/mL
- MIC50 (672 h, EE and MITT, 120 mg QD, Day 28, read-out: MIC50 for P. aeruginosa isolates): 8 µg/mL
- MIC90 (672 h, EE and MITT, 120 mg QD, Day 28, read-out: MIC90 for P. aeruginosa isolates): 32 µg/mL
- MIC50 (672 h, EE and MITT, 240 mg BID, Day 28, read-out: MIC50 for P. aeruginosa isolates): 8 µg/mL
- MIC90 (672 h, EE and MITT, 240 mg BID, Day 28, read-out: MIC90 for P. aeruginosa isolates): 32 µg/mL
- MIC50 (672 h, EE and MITT, 240 mg QD, Day 28, read-out: MIC50 for P. aeruginosa isolates): 8 µg/mL
- MIC90 (672 h, EE and MITT, 240 mg QD, Day 28, read-out: MIC90 for P. aeruginosa isolates): 16 µg/mL
- MIC50 (672 h, EE, 120 mg QD, Day 28, read-out: MIC50 (all organisms)): 4 µg/mL
- MIC90 (672 h, EE, 120 mg QD, Day 28, read-out: MIC90 (all organisms)): 16 µg/mL
- MIC50 (672 h, EE, 240 mg BID, Day 28, read-out: MIC50 (all organisms)): 4 µg/mL
- MIC90 (672 h, EE, 240 mg BID, Day 28, read-out: MIC90 (all organisms)): 32 µg/mL
- MIC50 (672 h, EE, 240 mg QD, Day 28, read-out: MIC50 (all organisms)): 4 µg/mL
- MIC90 (672 h, EE, 240 mg QD, Day 28, read-out: MIC90 (all organisms)): 16 µg/mL
- MIC50 (672 h, EE, combined 240 mg QD and BID, Day 28, read-out: MIC50 (all organisms)): 4 µg/mL
- MIC90 (672 h, EE, combined 240 mg QD and BID, Day 28, read-out: MIC90 (all organisms)): 16 µg/mL
- MIC50 (672 h, MITT, 120 mg QD, Day 28, read-out: Highest MIC, MIC50): 8 µg/mL
- MIC90 (672 h, MITT, 120 mg QD, Day 28, read-out: Highest MIC, MIC90): 32 µg/mL
- MIC50 (672 h, MITT, 120 mg QD, Day 28, read-out: MIC50 (all organisms)): 4 µg/mL
- MIC90 (672 h, MITT, 120 mg QD, Day 28, read-out: MIC90 (all organisms)): 16 µg/mL
- MIC50 (672 h, MITT, 240 mg BID, Day 28, read-out: Highest MIC, MIC50): 8 µg/mL
- MIC90 (672 h, MITT, 240 mg BID, Day 28, read-out: Highest MIC, MIC90): 16 µg/mL
- MIC50 (672 h, MITT, 240 mg BID, Day 28, read-out: MIC50 (all organisms)): 4 µg/mL
- MIC90 (672 h, MITT, 240 mg BID, Day 28, read-out: MIC90 (all organisms)): 32 µg/mL
- MIC50 (672 h, MITT, 240 mg QD, Day 28, read-out: Highest MIC, MIC50): 8 µg/mL
- MIC90 (672 h, MITT, 240 mg QD, Day 28, read-out: Highest MIC, MIC90): 16 µg/mL
- MIC50 (672 h, MITT, 240 mg QD, Day 28, read-out: MIC50 (all organisms)): 4 µg/mL
- MIC90 (672 h, MITT, 240 mg QD, Day 28, read-out: MIC90 (all organisms)): 16 µg/mL
- MIC50 (672 h, MITT, combined 240 mg QD and BID, Day 28, read-out: Highest MIC, MIC50): 8 µg/mL
